# Experimental data taken from the supplement of paper PMC10307832.
# Compound: C1CC(C2=C(C1)C3=C(N2)C=CC(=C3)Cl)C(=O)N [Selisistat] + COc1cc2c(Oc3ccc(NC(=O)C4(C(=O)Nc5ccc(F)cc5)CC4)cc3F)ccnc2cc1OCCCN1CCOCC1 [Foretinib] (partner 0.25 µM)
# Assay: relative viability (nuclei count vs DMSO), 5 days (fraction); higher = more cells survive
# Settings: first compound 40 µM
# In short: (§1)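 Relative viability divides the nuclei count in treated wells by that in vehicle wells. Lung cancer cell lines were seeded in 1536-well plates, dosed by pin tool the next day, and fixed and stained after 5 days in one step with final 0.05% Triton X-100, 1% formaldehyde and 1 ug/ml Hoechst. Dosing was a single drug or a fixed anchor-drug dose plus five library-drug doses (not always all listed) in √10 steps, and values are medians of duplicate plates imaged at 4×.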
row,Cell Line,relative viability
1,RERF-LC-KJ,0.803

# Compound: C1CC(C2=C(C1)C3=C(N2)C=CC(=C3)Cl)C(=O)N [Selisistat] + Cc1cc(Nc2cc(N3CCN(C)CC3)nc(Sc3ccc(NC(=O)C4CC4)cc3)n2)n[nH]1 [Tozasertib] (partner 0.1 µM)
# Assay: as above
# Settings: first compound 0.4 µM
# In short: as §1
row,Cell Line,relative viability
1,HOP-62,0.362
2,LU99A,0.298
3,BEN,0.55
4,HARA,0.137
5,HCC-78,0.486
6,NCI-H322M,0.552
7,LCLC-97TM1,0.207
8,A-427,0.207
9,NCI-H441,0.688
10,NCI-H1734,0.278
11,NCI-H460,0.515
12,NCI-H2347,0.606
13,NCI-H1395,0.705
14,201T,0.945
15,NCI-H1915,0.436
16,HCC-827,0.418
17,LXF-289,0.18

row,Cell Line,relative viability
1,NCI-H23,0.377
2,NCI-H647,0.227
3,CAL-12T,0.306
4,NCI-H1651,0.7
5,EPLC-272H,0.265
6,NCI-H1355,0.599
7,NCI-H3122,0.367
8,NCI-H1437,0.426
9,NCI-H1755,0.635
10,HCC-15,0.407
11,NCI-H1793,0.324
12,PC-14,0.649
13,EKVX,0.352
14,LC-2-ad,0.535
15,NCI-H1944,0.273
16,NCI-H1975,0.715
17,RERF-LC-KJ,0.662

# Same assay, conditions: first compound 1.265 µM
row,Cell Line,relative viability
1,HOP-62,0.383
2,LU99A,0.249
3,BEN,0.406
4,HARA,0.12
5,HCC-78,0.418
6,NCI-H322M,0.475
7,LCLC-97TM1,0.216
8,A-427,0.194
9,NCI-H441,0.607
10,NCI-H1734,0.265
11,NCI-H460,0.366
12,NCI-H2347,0.733
13,NCI-H1395,0.698
14,201T,0.95
15,NCI-H1915,0.41
16,HCC-827,0.429
17,LXF-289,0.162

row,Cell Line,relative viability
1,NCI-H23,0.384
2,NCI-H647,0.322
3,CAL-12T,0.239
4,NCI-H1651,0.735
5,EPLC-272H,0.231
6,NCI-H1355,0.648
7,NCI-H3122,0.352
8,NCI-H1437,0.398
9,NCI-H1755,0.613
10,HCC-15,0.375
11,NCI-H1793,0.395
12,PC-14,0.563
13,EKVX,0.37
14,NCI-H1944,0.243
15,NCI-H1975,0.63
16,RERF-LC-KJ,0.46

# Same assay, conditions: first compound 4 µM
row,Cell Line,relative viability
1,HOP-62,0.464
2,LU99A,0.319
3,BEN,0.385
4,HARA,0.119
5,HCC-78,0.398
6,NCI-H322M,0.455
7,A-427,0.182
8,NCI-H441,0.65
9,NCI-H1734,0.283
10,NCI-H460,0.289
11,NCI-H2347,0.427
12,NCI-H1395,0.81
13,201T,0.873
14,NCI-H1915,0.374
15,HCC-827,0.444
16,LXF-289,0.2
17,NCI-H23,0.319
18,NCI-H647,0.44
19,CAL-12T,0.328
20,NCI-H1651,0.599
21,NCI-H1355,0.519
22,NCI-H3122,0.347
23,NCI-H1437,0.339
24,NCI-H1755,0.621
25,PC-14,0.522
26,EKVX,0.421
27,LC-2-ad,0.378
28,NCI-H1975,0.69
29,RERF-LC-KJ,0.519

# Same assay, conditions: first compound 12.65 µM
row,Cell Line,relative viability
1,HOP-62,0.375
2,LU99A,0.313
3,BEN,0.505
4,HARA,0.154
5,HCC-78,0.407
6,NCI-H322M,0.469
7,LCLC-97TM1,0.231
8,A-427,0.226
9,NCI-H441,0.597
10,NCI-H1734,0.263
11,NCI-H460,0.28
12,NCI-H2347,0.617
13,NCI-H1395,0.8
14,201T,0.919
15,NCI-H1915,0.339
16,HCC-827,0.389
17,LXF-289,0.179

row,Cell Line,relative viability
1,NCI-H23,0.33
2,NCI-H647,0.29
3,CAL-12T,0.27
4,NCI-H1651,0.618
5,EPLC-272H,0.34
6,NCI-H1355,0.497
7,NCI-H3122,0.34
8,NCI-H1437,0.369
9,NCI-H1755,0.525
10,HCC-15,0.311
11,NCI-H1793,0.326
12,PC-14,0.581
13,EKVX,0.376
14,LC-2-ad,0.433
15,NCI-H1944,0.231
16,NCI-H1975,0.48
17,RERF-LC-KJ,0.403

# Same assay, conditions: first compound 40 µM
row,Cell Line,relative viability
1,HOP-62,0.372
2,LU99A,0.281
3,BEN,0.471
4,HARA,0.1
5,HCC-78,0.424
6,NCI-H322M,0.495
7,LCLC-97TM1,0.212
8,A-427,0.183
9,NCI-H441,0.59
10,NCI-H1734,0.228
11,NCI-H460,0.441
12,NCI-H2347,0.583
13,NCI-H1395,0.686
14,201T,0.935
15,NCI-H1915,0.41
16,HCC-827,0.392

row,Cell Line,relative viability
1,LXF-289,0.237
2,NCI-H23,0.295
3,NCI-H647,0.343
4,CAL-12T,0.255
5,NCI-H1651,0.584
6,EPLC-272H,0.191
7,NCI-H1355,0.589
8,NCI-H3122,0.372
9,NCI-H1437,0.369
10,NCI-H1755,0.61
11,HCC-15,0.252
12,NCI-H1793,0.582
13,PC-14,0.656
14,EKVX,0.369
15,LC-2-ad,0.529
